Consider one molecule from patent US20120258926A1, “FORMULATIONS OF ACADESINE” (priority 2009, published 2012).

≈ marks a conversion by molar mass, not a printed value. Where two headings read alike, the source gives them in different places.

The series in a line: Solubility data of acadesine in injectable solution. The series is classed as physicochemical.

As to `NC(=O)c1ncn([C@@H]2O[C@H](CO)[C@@H](O)[C@H]2O)c1N` [Acadesine, 5-aminoimidazole-4-carboxamide (AICA) riboside], the solubility (5° C., injectable solution pH 6.0-8.0 (with antioxidant), read-out: solubility data supports) was 18 mg/mL (≈ 69.7 mM); the solubility (5° C., injectable solution pH 7.2-8.0, read-out: solubility data supports) is 18 mg/mL (≈ 69.7 mM); the solubility (5° C., injectable solution pH range 8.8-9.6, read-out: Available solubility data supports up to) was ≤ 21.5 mg/mL; the solubility (5 °C, injectable solution pH 8.8-9.6, read-out: solubility data supports) turned out to be 18 mg/mL (≈ 69.7 mM); the solubility (Room temperature, injectable solution pH 6.0-8.0 (with antioxidant), read-out: solubility data supports) stood at 60 mg/mL (≈ 232 mM); the solubility (Room temperature, injectable solution pH 7.2-8.0, read-out: solubility data supports) came out at 60 mg/mL (≈ 232 mM). For the same molecule, for the setting “Room temperature, injectable solution pH 8.8-9.6, read-out: solubility data supports”, the solubility is 60 mg/mL (≈ 232 mM).

The term solubility denotes the dissolved amount per volume that the medium holds.
